In ChEMBL document CHEMBL5338791, “Discovery of Novel 1,3-Diphenylpyrazine Derivatives as Potent S-Phase Kinase-Associated Protein 2 (Skp2) Inhibitors for the Treatment of Cancer” (J Med Chem, 2023):
In brackets after ≈: the same amount, converted by molar mass. Activity calls are given as the source filed them. The rule behind the calls is not given here.

Key:
PC-3 [1] = assay: Antitumor activity against human PC-3 cells xenografted in NOD-SCID mouse model assessed as tumor growth inhibition at 5 mg/kg, ip administered once every 3 days for 21 days relative to control; type: functional; details: PC-3, 504 h, time 21 day, read-out: TGI
[2] = Toxicity in mouse assessed as increase in blood total bilirubin level at 5 mg/kg; type: organism-based; details: in vivo
[3] = Toxicity in mouse assessed as increase in blood BUN level at 5 mg/kg; type: organism-based; details: in vivo
[4] = Toxicity in mouse assessed as increase in blood GGT level at 5 mg/kg; type: organism-based; details: in vivo
[5] = Toxicity in mouse assessed as increase in blood glutamic pyruvic transaminase level at 5 mg/kg; type: organism-based; details: in vivo
[6] = Toxicity in mouse assessed as increase in blood creatinine level at 5 mg/kg; type: organism-based; details: in vivo
[7] = Toxicity in mouse assessed as decrease in total protein level at 5 mg/kg; type: organism-based; details: in vivo
[8] = Toxicity in mouse assessed as decrease in platelet level at 5 mg/kg; type: organism-based; details: in vivo
[9] = target: T1, S-phase kinase-associated protein 2/Cyclin-dependent kinases regulatory subunit 1/S-phase kinase-associated protein 1 (Homo sapiens, UniProt Q13309); assay: Inhibition of GST-tagged Skp2/Skp1 (unknown origin)/His6-tagged Cks1 (unknown origin) interaction preincubated with Skp2/Skp1 for 10 mins followed by Cks1 addition measured after 20 mins by HTRF assay; type: protein assay
MGC-803 [10] = assay: Antitumor activity against human MGC-803 cells assessed as cell growth inhibition incubated for 72 hrs by MTT assay; type: functional, cell-based; details: MGC-803, 72 h
NCI-H1299 = assay: Antitumor activity against human NCI-H1299 cells assessed as cell growth inhibition incubated for 72 hrs by MTT assay; type: functional, cell-based; details: NCI-H1299, 72 h
MCF7 = assay: Antitumor activity against human MCF7 cells assessed as cell growth inhibition incubated for 72 hrs by MTT assay; type: functional, cell-based; details: MCF7, 72 h
[11] = Antitumor activity against human EC1 cells assessed as cell growth inhibition incubated for 72 hrs by MTT assay; type: functional, cell-based; details: EC1, 72 h
PC-3 [12] = assay: Antitumor activity against human PC-3 cells assessed as cell growth inhibition incubated for 72 hrs by MTT assay; type: functional, cell-based; details: PC-3, 72 h
[13] = Solubility in cell culture medium by HPLC analysis; type: physicochemical
PC-3 [14] = assay: Upregulation of p27 level in human PC-3 cells at 20 uM incubated for 48 hrs by Western blot analysis; type: functional, cell-based
PC-3 [15] = assay: Upregulation of p21 level in human PC-3 cells at 20 uM incubated for 48 hrs by Western blot analysis; type: functional, cell-based
PC-3 [16] = assay: Downregulation of Skp2 level in human PC-3 cells at 20 uM incubated for 48 hrs by Western blot analysis; type: functional, cell-based
MGC-803 [17] = assay: Downregulation of Skp2 level in human MGC-803 cells at 20 uM incubated for 48 hrs by Western blot analysis; type: functional, cell-based
MGC-803 [18] = assay: Upregulation of p21 level in human MGC-803 cells at 20 uM incubated for 48 hrs by Western blot analysis; type: functional, cell-based
MGC-803 [19] = assay: Upregulation of p27 level in human MGC-803 cells at 20 uM incubated for 48 hrs by Western blot analysis; type: functional, cell-based
PC-3 [20] = assay: Induction of cell cycle arrest in human PC-3 cells assessed as accumulation of cells at G1 phase at 20 uM incubated for 48 hrs by flow cytometry (reference value: 57.39 %); type: functional
PC-3 [21] = assay: Induction of cell cycle arrest in human PC-3 cells assessed as accumulation of cells at S phase at 20 uM incubated for 48 hrs by flow cytometry (reference value: 22.44 %); type: functional
PC-3 [22] = assay: Induction of cell cycle arrest in human PC-3 cells assessed as accumulation of cells at G2 phase at 20 uM incubated for 48 hrs by flow cytometry (reference value: 22.59 %); type: functional
MGC-803 [23] = assay: Induction of cell cycle arrest in human MGC-803 cells assessed as accumulation of cells at G1 phase at 20 uM incubated for 48 hrs by flow cytometry (reference value: 54.46 %); type: functional
MGC-803 [24] = assay: Induction of cell cycle arrest in human MGC-803 cells assessed as accumulation of cells at S phase at 20 uM incubated for 48 hrs by flow cytometry (reference value: 22.72 %); type: functional
MGC-803 [25] = assay: Induction of cell cycle arrest in human MGC-803 cells assessed as accumulation of cells at G2 phase at 20 uM incubated for 48 hrs by flow cytometry (reference value: 21.35 %); type: functional
PC-3 [26] = assay: Induction of apoptosis in human PC-3 cells assessed as viable cells at 20 uM incubated for 48 hrs by annexin V-FITC/PI staining based flow cytometry (reference value: 98.6 %); type: functional; details: read-out: Activity
PC-3 [27] = assay: Induction of apoptosis in human PC-3 cells assessed as early apoptotic cells at 20 uM incubated for 48 hrs by annexin V-FITC/PI staining based flow cytometry (reference value: 0.85 %); type: functional
PC-3 [28] = assay: Induction of apoptosis in human PC-3 cells assessed as late apoptotic cells at 20 uM incubated for 48 hrs by annexin V-FITC/PI staining based flow cytometry (reference value: 0.45 %); type: functional
PC-3 [29] = assay: Induction of apoptosis in human PC-3 cells assessed as necrotic cells at 20 uM incubated for 48 hrs by annexin V-FITC/PI staining based flow cytometry (reference value: 0.14 %); type: functional
MGC-803 [30] = assay: Induction of apoptosis in human MGC-803 cells assessed as viable cells at 20 uM incubated for 48 hrs by annexin V-FITC/PI staining based flow cytometry (reference value: 98 %); type: functional; details: read-out: Activity
MGC-803 [31] = assay: Induction of apoptosis in human MGC-803 cells assessed as early apoptotic cells at 20 uM incubated for 48 hrs by annexin V-FITC/PI staining based flow cytometry (reference value: 0.21 %); type: functional
MGC-803 [32] = assay: Induction of apoptosis in human MGC-803 cells assessed as late apoptotic cells at 20 uM incubated for 48 hrs by annexin V-FITC/PI staining based flow cytometry (reference value: 0.95 %); type: functional
MGC-803 [33] = assay: Induction of apoptosis in human MGC-803 cells assessed as necrotic cells at 20 uM incubated for 48 hrs by annexin V-FITC/PI staining based flow cytometry (reference value: 0.89 %); type: functional
[34] = target: T1, S-phase kinase-associated protein 2/Cyclin-dependent kinases regulatory subunit 1/S-phase kinase-associated protein 1; assay: Inhibition of GST-tagged Skp2/Skp1 (unknown origin)/His6-tagged Cks1 (unknown origin) interaction by AlphaScreen assay; type: protein assay

T1 sequence (P61024 whole entry): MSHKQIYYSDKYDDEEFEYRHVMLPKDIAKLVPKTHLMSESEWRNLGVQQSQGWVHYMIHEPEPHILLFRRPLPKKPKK
T1 sequence (Q13309 whole entry): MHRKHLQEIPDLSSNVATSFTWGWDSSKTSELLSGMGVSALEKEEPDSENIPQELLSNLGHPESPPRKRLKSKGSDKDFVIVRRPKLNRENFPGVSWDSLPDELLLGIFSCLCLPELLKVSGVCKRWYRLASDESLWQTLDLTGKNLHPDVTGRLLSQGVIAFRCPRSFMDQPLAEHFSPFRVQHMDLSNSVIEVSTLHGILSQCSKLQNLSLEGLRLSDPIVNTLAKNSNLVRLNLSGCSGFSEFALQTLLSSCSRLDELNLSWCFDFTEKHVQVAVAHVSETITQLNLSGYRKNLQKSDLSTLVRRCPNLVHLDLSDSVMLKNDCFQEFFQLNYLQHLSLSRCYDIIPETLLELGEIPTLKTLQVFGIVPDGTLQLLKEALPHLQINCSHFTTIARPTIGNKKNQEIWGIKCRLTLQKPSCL
T1 sequence (P63208 whole entry, further chain): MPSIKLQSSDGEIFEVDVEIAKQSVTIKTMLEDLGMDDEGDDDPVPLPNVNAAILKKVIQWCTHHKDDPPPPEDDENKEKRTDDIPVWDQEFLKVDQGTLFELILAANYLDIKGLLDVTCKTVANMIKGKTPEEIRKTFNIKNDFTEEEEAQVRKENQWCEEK

| SMILES | IC50 [9] [µM] | IC50 (MGC-803 [10]) [µM] | IC50 (NCI-H1299) [µM] | IC50 (MCF7) [µM] | IC50 [11] [µM] | IC50 (PC-3 [12]) [µM] | solubility [13] [µg/mL] | also measured |
| --- | --- | --- | --- | --- | --- | --- | --- | --- |
| CC(=O)O[C@H]1C(=O)[C@@]2(C)[C@H]([C@H](OC(=O)c3ccccc3)[C@]3(O)C[C@H](OC(=O)[C@H](O)[C@@H](NC(=O)c4ccccc4)c4ccccc4)C(C)=C1C3(C)C)[C@]1(OC(C)=O)CO[C@@H]1C[C@@H]2O [PACLITAXEL] |  |  |  |  |  |  |  | inhibition in vivo at 5 mg/kg (PC-3 [1]): 75.8%; Activity [2]: Toxic; Activity [3]: Toxic; Activity [4]: Toxic; Activity [5]: Toxic; Activity [6]: Toxic; Activity [7]: Toxic; Activity [8]: Toxic |
| CC(C)(C)OC(=O)N1CCN(c2cnc(-c3ccccc3)c(-c3ccccc3)n2)CC1 | 1.7 | 46.9 | > 100 | 42.1 | 52.3 | 96.5 | 0.13 (≈ 0.312 µM) |  |
| CC(C)N(CCCCOCC(=O)NS(C)(=O)=O)c1cnc(-c2ccccc2)c(-c2ccccc2)n1 [SELEXIPAG] | 42.8 |  |  |  |  |  |  | Activity (PC-3 [14]): Active; Activity (PC-3 [15]): Active; Activity (PC-3 [16]): Active; Activity (MGC-803 [17]): Active; Activity (MGC-803 [18]): Active; Activity (MGC-803 [19]): Active; Activity (PC-3 [20]): 44.88%; Activity (PC-3 [21]): 34.85%; Activity (PC-3 [22]): 18.81%; Activity (MGC-803 [23]): 49.75%; Activity (MGC-803 [24]): 27.3%; Activity (MGC-803 [25]): 21.27%; viability at 20 µM (PC-3 [26]): 92.7%; Activity (PC-3 [27]): 0.57%; Activity (PC-3 [28]): 4.54%; Activity (PC-3 [29]): 2.22%; viability at 20 µM (MGC-803 [30]): 96.8%; Activity (MGC-803 [31]): 1.58%; Activity (MGC-803 [32]): 1.21%; Activity (MGC-803 [33]): 0.44% |
| O=C(OC12CC3CC(CC(C3)C1)C2)c1ccc(NCc2cc(O)ccc2O)cc1 |  |  |  |  |  |  |  | IC50 [34]: 36.6 µM |
| CC(C)(C)C(=O)NCC1CCN(c2cnc(-c3ccc(S(C)(=O)=O)cc3)c(-c3ccccc3)n2)CC1 | 2.7 | 87.2 | 50.8 | 65.6 | 88.2 | 63.7 | 0.19 (≈ 0.375 µM) |  |
| O=C(NCC1CCN(c2cnc(-c3ccccc3)c(-c3ccccc3)n2)CC1)N1CCOCC1 |  | 59.3 | 30.4 | 47.1 | 51.8 | 28.6 | 0.55 (≈ 1.2 µM) |  |
| CC(C)(C)C(=O)NCC1CCN(c2cnc(-c3ccc(CO)cc3)c(-c3ccccc3)n2)CC1 |  | > 100 | 100 | > 100 | > 100 | > 100 | 0.06 (≈ 0.131 µM) |  |
| O=C(NCC1CCN(c2cnc(-c3ccccc3)c(-c3ccccc3)n2)CC1)c1ccccc1 | 2.4 | > 100 | > 100 | > 100 | 81.1 | 70.9 | 0.08 (≈ 0.178 µM) |  |
| CCC(=O)NCC1CCN(c2cnc(-c3ccccc3)c(-c3ccccc3)n2)CC1 | 2.8 | 43.9 | 68.3 | 58.1 | 52.6 | 22.1 | 0.57 (≈ 1.42 µM) |  |
| O=C(NC1CCN(c2cnc(-c3ccccc3)c(-c3ccccc3)n2)CC1)c1ccccc1 |  | 41.3 | > 100 | 25.1 | > 100 | > 100 | 0.1 (≈ 0.23 µM) |  |
| CC(C)(C)OC(=O)NCC1CCN(c2cnc(-c3ccccc3)c(-c3ccccc3)n2)CC1 | 2.3 | 23.6 | 41.6 | 18 | 45.6 | 11.7 | 0.51 (≈ 1.15 µM) |  |
| CC(C)(C)C(=O)NCC1CCN(c2cnc(-c3ccccc3)c(-c3ccccc3)n2)CC1 |  | > 100 | 59 | 51.8 | 75.6 | 68 | 0.1 (≈ 0.233 µM) |  |
| c1ccc(-c2ncc(N3CCOCC3)nc2-c2ccccc2)cc1 | > 50 |  |  |  |  |  |  |  |
